The subject of assay [1] is histamine H2 -receptors. The assay can be described thus: inhibition of histamine-stimulated acid secretion in the Heidenhain Pouch Dog. It counts as in vivo. The settings on record: intravenous administration, dose levels adjusted to produce similar peak responses.
Assay [2] has as its system histamine H2 -receptors. Briefly: inhibition of histamine-stimulated secretion of gastric acid from the lumen-perfused stomachs of rats anaesthetised with urethane (lumen-perfused rat test). The assay is classed as in vivo. The settings on record: times more active than the reference compound. The text has this:
These are actions of histamine which, according to Ash and Schild, Brit. J. Pharmac. Chemother. 27 247 (1966), are not mediated by histamine H1 -receptors.
(§1) The measurement of inhibition of histamine-stimulated secretion of gastric acid from the lumen-perfused stomachs of rats anaesthetised with urethane, and the measurement of inhibition of histamine-induced tachycardia in the isolated guinea pig right atrium, are detailed in U.S. Pat. No. 4,385,058.

Assay [3] has as its system histamine H2 -receptors. The assay can be described thus: inhibition of histamine-induced tachycardia in the isolated guinea pig right atrium (guinea pig atrium test). It counts as cell-based. The settings on record: times more active than the reference compound.
Description: as §1

For `O=c1cc[nH]c(NCCCOc2cccc(CN3CCCCC3)c2)c1` [Example 1, 2-[3-[3-(Piperidinomethyl)phenoxy]propylaminc]-pyrid-4-one], in the assay on histamine H2 -receptors [1], the “duration of activity compared with cimetidine” value was “longer duration of activity than cimetidine”. The “activity relative to 2-[2-(5-methylimidazol-4-ylmethylthio)ethylamino]pyrid-4-one (Example 16 of U.S. Pat. No. 3,932,644), lumen-perfused rat test” value in the assay with histamine H2 -receptors [2] is given as “over 100 times”. For the same molecule, in the assay on histamine H2 -receptors [3], the “activity relative to 2-[2-(5-methylimidazol-4-ylmethylthio)ethylamino]pyrid-4-one (Example 16 of U.S. Pat. No. 3,932,644), guinea pig atrium test” value is listed as “over 100 times”.

These data come from US4738969A, “Substituted aminopyridones and aminoquinolones having histamine H2 -receptor blocking activity” (Smith Kline & French Laboratories Limited, priority 1983, dated 1988).
